Test results published in patent US20210300924A1, “5-[6-[[3-(4,5,6,7-TETRAHYDROPYRAZOLO[4,3-C]PYRIDIN-1-YL)AZETIDIN-1-YL]METHYL]MORPHOLIN-4-YL]QUINOLINE-8-CARBONITRILE DERIVATIVES AND SIMILAR COMPOUNDS AS TLR7-9 ANTAGONISTS FOR TREATING SYSTEMIC LUPUS ERYTHEMATOSUS” (Hoffmann-La Roche Inc., priority 2018, published 2021).

Biological target: T1, human TLR7 (Homo sapiens, UniProt Q9NYK1)
T1 construct: host or cells: HEK293 (HEK-Blue hTLR7)
T1 sequence (Q9NYK1 27-1049): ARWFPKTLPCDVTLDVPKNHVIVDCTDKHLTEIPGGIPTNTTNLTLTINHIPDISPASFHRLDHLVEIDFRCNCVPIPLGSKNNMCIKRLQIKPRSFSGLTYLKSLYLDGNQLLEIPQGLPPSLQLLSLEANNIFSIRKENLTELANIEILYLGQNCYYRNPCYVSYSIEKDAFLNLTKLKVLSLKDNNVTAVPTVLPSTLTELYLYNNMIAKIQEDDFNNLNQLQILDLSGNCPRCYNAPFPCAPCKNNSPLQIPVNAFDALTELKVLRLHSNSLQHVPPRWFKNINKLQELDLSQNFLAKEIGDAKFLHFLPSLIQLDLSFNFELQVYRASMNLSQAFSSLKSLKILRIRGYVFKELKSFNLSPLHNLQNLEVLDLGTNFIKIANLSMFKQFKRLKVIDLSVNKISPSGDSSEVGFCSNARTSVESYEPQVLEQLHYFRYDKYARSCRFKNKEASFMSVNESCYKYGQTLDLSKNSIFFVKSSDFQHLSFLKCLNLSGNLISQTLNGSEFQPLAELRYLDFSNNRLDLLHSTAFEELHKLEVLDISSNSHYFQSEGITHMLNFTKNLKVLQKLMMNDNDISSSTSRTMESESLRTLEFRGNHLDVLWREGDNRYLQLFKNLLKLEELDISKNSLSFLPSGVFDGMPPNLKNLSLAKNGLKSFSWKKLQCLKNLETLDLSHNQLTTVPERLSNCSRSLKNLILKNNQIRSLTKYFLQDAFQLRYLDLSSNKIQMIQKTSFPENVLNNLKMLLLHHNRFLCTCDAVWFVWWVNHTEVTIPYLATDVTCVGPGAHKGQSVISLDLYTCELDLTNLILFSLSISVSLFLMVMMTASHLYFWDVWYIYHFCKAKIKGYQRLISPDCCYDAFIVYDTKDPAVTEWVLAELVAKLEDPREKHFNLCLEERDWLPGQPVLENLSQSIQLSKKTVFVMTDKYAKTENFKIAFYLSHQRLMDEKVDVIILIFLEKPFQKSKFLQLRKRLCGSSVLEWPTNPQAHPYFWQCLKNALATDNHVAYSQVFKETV
Assay: HEK293-Blue-hTLR-7 cells assay
Assay type: cell-based
Details: HEK293-Blue-hTLR7 cells, R848 stimulation, 20 hrs, SEAP reporter; read-out: HEK/hTLR7 IC50
Text: HEK293-Blue-hTLR-7 cells assay:
A stable HEK293-Blue-hTLR-7 cell line was purchased from InvivoGen (Cat. #: hkb-htlr7, San Diego, Calif., USA). These cells were originally designed for studying the stimulation of human TLR7 by monitoring the activation of NF-κB. A SEAP (secreted embryonic alkaline phosphatase) reporter gene was placed under the control of the IFN-β minimal promoter fused to five NF-κB and AP-1-binding sites. The SEAP was induced by activating NF-κB and AP-1 via stimulating HEK-Blue hTLR7 cells with TLR7 ligands. Therefore the reporter expression was declined by TLR7 antagonist under the stimulation of a ligand, such as R848 (Resiquimod), for incubation of 20 hrs. The cell culture supernatant SEAP reporter activity was determined using QUANTI-Blue™ kit (Cat. #: rep-qb1, Invivogen, San Diego, Ca, USA) at a wavelength of 640 nm, a detection medium that turns purple or blue in the presence of alkaline phosphatase.
HEK293-Blue-hTLR7 cells were incubated at a density of 250,000-450,000 cells/mL in a volume of 170 μL in a 96-well plate in Dulbecco's Modified Eagle's medium (DMEM) containing 4.5 g/L glucose, 50 U/mL penicillin, […], […], 2 mM L-glutamine, 10% (v/v) heat-inactivated fetal bovine serum with addition of 20 μL test compound in a serial dilution in the presence of final DMSO at 1% and 10 μL of 20 uM R848 in above DMEM, perform incubation under 37° C. in a CO2 incubator for 20 hrs. Then 20 μL of the supernatant from each well was incubated with 180 μL Quanti-blue substrate solution at 37° C. for 2 hrs and the absorbance was read at 620˜655 nm using a spectrophotometer. The signaling pathway that TLR7 activation leads to downstream NF-κB activation has been widely accepted, and therefore similar reporter assay was modified for evaluating TLR7 antagonist.

| IC50 [nM] | Structure (SMILES) |
| --- | --- |
| 4 | C[C@@H]1CN(c2ccc(C#N)c3ncccc23)C[C@H](CN2CC(n3cc4c(n3)[C@H](C)CNC4)C2)O1 (single isomer, unassigned) [Example 25] |
| 6 | C[C@@H]1CN(c2ccc(C#N)c3ncccc23)C[C@H](CN2CC(n3cc4c(n3)[C@@H](C)CNC4)C2)O1 (single isomer, unassigned) [Example 26] |
| 6 | C[C@@H]1CN(c2ccc(C#N)c3ncccc23)C[C@H](CN2CC(n3ncc4c3CN[C@@H](C)C4)C2)O1 (single isomer, unassigned) [Example 27] |
| 5 | C[C@@H]1Cc2cnn(C3CN(C[C@H]4CN(c5ccc(C#N)c6ncccc56)C[C@@H](C)O4)C3)c2CN1 (single isomer, unassigned) [Example 28] |
| 8 | C[C@@H]1CN(c2ccc(C#N)c3ncccc23)C[C@H](CN2CC(n3cc4c(n3)CN[C@@H](C)C4)C2)O1 (single isomer, unassigned) [Example 29] |
| 5 | C[C@@H]1Cc2cn(C3CN(C[C@H]4CN(c5ccc(C#N)c6ncccc56)C[C@@H](C)O4)C3)nc2CN1 (single isomer, unassigned) [Example 30] |
| < 3 | C[C@@H]1CN(c2ccc(C#N)c3ncccc23)C[C@H](CN2CC(n3ncc4c3[C@@H](C)NCC4)C2)O1 (single isomer, unassigned) [Example 31] |
| < 3 | C[C@@H]1CN(c2ccc(C#N)c3ncccc23)C[C@H](CN2CC(n3ncc4c3[C@H](C)NCC4)C2)O1 (single isomer, unassigned) [Example 32] |
| 7 | C[C@@H]1CN(c2ccc(C#N)c3ncccc23)C[C@H](CN2CC(n3cc4c(n3)[C@@H](C)NCC4)C2)O1 (single isomer, unassigned) [Example 33] |
| 6 | C[C@@H]1CN(c2ccc(C#N)c3ncccc23)C[C@H](CN2CC(n3cc4c(n3)[C@H](C)NCC4)C2)O1 (single isomer, unassigned) [Example 34] |
| 3 | C[C@@H]1CN(c2ccc(C#N)c3ncccc23)C[C@H](CN2CC(n3ncc4c3CNCC4)C2)O1 [Example 3, 5-[(2R,6S)-2-methyl-6-[[3-(4,5,6,7-tetrahydropyrazolo[3,4-c]pyridin-1-yl)azetidin-1-yl]methyl]morpholin-4-yl]quinoline-8-carbonitrile] |
| 12 | CCN1CCc2cnn(C3CN(C[C@H]4CN(c5ccc(C#N)c6ncccc56)C[C@@H](C)O4)C3)c2C1 [Example 6, 5-[(2S,6R)-2-[[3-(6-ethyl-5,7-dihydro-4H-pyrazolo[3,4-c]pyridin-1-yl)azetidin-1-yl]methyl]-6-methyl-morpholin-4-yl]quinoline-8-carbonitrile] |
| 8 | CCN1CCc2cn(C3CN(C[C@H]4CN(c5ccc(C#N)c6ncccc56)C[C@@H](C)O4)C3)nc2C1 [Example 7, 5-[(2S,6R)-2-[[3-(6-ethyl-5,7-dihydro-4H-pyrazolo[3,4-c]pyridin-2-yl)azetidin-1-yl]methyl]-6-methyl-morpholin-4-yl]quinoline-8-carbonitrile] |
| 18 | CC(C)N1CCc2cnn(C3CN(C[C@H]4CN(c5ccc(C#N)c6ncccc56)C[C@@H](C)O4)C3)c2C1 [Example 8, 5-[(2S,6R)-2-[[3-(6-isopropyl-5,7-dihydro-4H-pyrazolo[3,4-c]pyridin-1-yl)azetidin-1-yl]methyl]-6-methyl-morpholin-4-yl]quinoline-8-carbonitrile] |
| 12 | CC(C)N1CCc2cn(C3CN(C[C@H]4CN(c5ccc(C#N)c6ncccc56)C[C@@H](C)O4)C3)nc2C1 [Example 9, 5-[(2S,6R)-2-[[3-(6-isopropyl-5,7-dihydro-4H-pyrazolo[3,4-c]pyridin-2-yl)azetidin-1-yl]methyl]-6-methyl-morpholin-4-yl]quinoline-8-carbonitrile] |
| 16 | C[C@@H]1CN(c2ccc(C#N)c3ncccc23)C[C@H](CN2CC(n3ncc4c3CNC4)C2)O1 [Example 10, 5-[(2S,6R)-2-[[3-(5,6-dihydro-4H-pyrrolo[3,4-c]pyrazol-1-yl)azetidin-1-yl]methyl]-6-methyl-morpholin-4-yl]quinoline-8-carbonitrile] |
| 15 | Cc1nn(C2CN(C[C@H]3CN(c4ccc(C#N)c5ncccc45)C[C@@H](C)O3)C2)c2c1CNCC2 [Example 12, 5-[(2R,6S)-2-methyl-6-[[3-(3-methyl-4,5,6,7-tetrahydropyrazolo[4,3-c]pyridin-1-yl)azetidin-1-yl]methyl]morpholin-4-yl]quinoline-8-carbonitrile] |
| 14 | Cc1c2c(nn1C1CN(C[C@H]3CN(c4ccc(C#N)c5ncccc45)C[C@@H](C)O3)C1)CCNC2 [Example 13, 5-[(2R,6S)-2-methyl-6-[[3-(3-methyl-4,5,6,7-tetrahydropyrazolo[4,3-c]pyridin-2-yl)azetidin-1-yl]methyl]morpholin-4-yl]quinoline-8-carbonitrile] |
| 26 | Cc1nn(C2CN(C[C@H]3CN(c4ccc(C#N)c5ncccc45)C[C@@H](C)O3)C2)c2c1CN(C)CC2 [Example 14, 5-[(2S,6R)-2-[[3-(3,5-dimethyl-6,7-dihydro-4H-pyrazolo[4,3-c]pyridin-1-yl)azetidin-1-yl]methyl]-6-methyl-morpholin-4-yl]quinoline-8-carbonitrile] |
| 9 | Cc1c2c(nn1C1CN(C[C@H]3CN(c4ccc(C#N)c5ncccc45)C[C@@H](C)O3)C1)CCN(C)C2 [Example 15, 5-[(2S,6R)-2-[[3-(3,5-dimethyl-6,7-dihydro-4H-pyrazolo[4,3-c]pyridin-2-yl)azetidin-1-yl]methyl]-6-methyl-morpholin-4-yl]quinoline-8-carbonitrile] |
| 4 | C[C@@H]1CN(c2ccc(C#N)c3ncccc23)C[C@H](CN2CC(n3cc4c(n3)C(C)(C)CNC4)C2)O1 [Example 24, 5-[(2S,6R)-2-[[3-(7,7-dimethyl-5,6-dihydro-4H-pyrazolo[4,3-c]pyridin-2-yl)azetidin-1-yl]methyl]-6-methyl-morpholin-4-yl]quinoline-8-carbonitrile] |

Tested on: not listed separately
Assay: Human microsome stability assay
Assay type: in vitro ADME
Details: 1 μM test compound, 0.5 mg/mL liver microsomal protein, 37° C., up to 30 minutes; 6.2 = detection limit
Protocol: Human Microsome Stability Assay
The human microsomal stability assay is used for early assessment of metabolic stability of a test compound in human liver microsomes.
Human liver microsomes (Cat. NO.: 452117, Corning, USA; Cat. NO.:H2610, Xenotech, USA) were preincubated with test compound for 10 minutes at 37° C. in 100 mM potassium phosphate buffer, pH 7.4. The reactions were initiated by adding NADPH regenerating system. The final incubation mixtures contained 1 μM test compound, 0.5 mg/mL liver microsomal protein, 1 mM MgCl2, 1 mM NADP, 1 unit/mL isocitric dehydrogenase and 6 mM isocitric acid in 100 mM potassium phosphate buffer, pH 7.4. After incubation times of 0, 3, 6, 9, 15 and 30 minutes at 37° C., 300 μL of cold acetonitrile (including internal standard) was added to 100 μL incubation mixture to terminate the reaction. Following precipitation and centrifugation, the amount of compound remaining in the samples were determined by LC-MS/MS. Controls of no NADPH regenerating system at zero and 30 minutes were also prepared and analyzed.

| Clearance of Human microsome [mL/min/kg] | Structure (SMILES) |
| --- | --- |
| 6.2 | C[C@@H]1Cc2cnn(C3CN(C[C@H]4CN(c5ccc(C#N)c6ncccc56)C[C@@H](C)O4)C3)c2CN1 (single isomer, unassigned) [Example 28] |
| 6.6 | C[C@@H]1CN(c2ccc(C#N)c3ncccc23)C[C@H](CN2CC(n3cc4c(n3)CN[C@@H](C)C4)C2)O1 (single isomer, unassigned) [Example 29] |
| 6.2 | C[C@@H]1Cc2cn(C3CN(C[C@H]4CN(c5ccc(C#N)c6ncccc56)C[C@@H](C)O4)C3)nc2CN1 (single isomer, unassigned) [Example 30] |
| 6.4 | C[C@@H]1CN(c2ccc(C#N)c3ncccc23)C[C@H](CN2CC(n3cc4c(n3)[C@H](C)NCC4)C2)O1 (single isomer, unassigned) [Example 34] |
